Measurements taken from PubChem BioAssay AID200 (DTP/NCI, 2004).
Where “and” joins values, the source holds several entries; their conditions need not be identical. Equal values may be shown once. Inconclusive results and toxic doses are left out.

Tested on: B6C3F1 mice, B16 melanoma ip, median survival T/C
Test: NCI In Vivo Anticancer Drug Screen. Data for tumor model B16 Melanoma (intraperitoneal) in B6C3F1 mice
Conditions: endpoint: median survival time, higher = longer survival
In short: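 Readout: survival or tumor size in treated mice relative to vehicle controls (T/C). Model uses transplantable tumors grown in mice.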

[1] = dose: 12.5 mg/kg/injection, schedule: Q01DX009 (ip), vehicle: saline with Tween-80
[2] = dose: 6.25 mg/kg/injection, schedule: Q01DX009 (ip), vehicle: saline with Tween-80
[3] = dose: 50.0 mg/kg/injection, schedule: Q01DX009 (ip), vehicle: saline with Tween-80
[4] = dose: 100.0 mg/kg/injection, schedule: Q01DX009 (ip), vehicle: saline with Tween-80

For `COC1CC(C)C(OC)c2cc(O)cc(c2O)NC(=O)/C(C)=C/C=C\C(C)C(OC(N)=O)/C(C)=C\C(C)C1OC` (centres undefined), the T/C (dose: 0.31 mg/kg/injection, schedule: Q01DX005 (iv), vehicle: other) was 94 % of control, the T/C (dose: 0.31 mg/kg/injection, schedule: Q01DX009 (ip), vehicle: other) was 109 % of control and the T/C (dose: 0.31 mg/kg/injection, schedule: Q01DX009 (ip), vehicle: saline with Tween-80) was 98 % of control. The T/C (dose: 0.62 mg/kg/injection, schedule: Q01DX005 (iv), vehicle: other) was 101 % of control, the T/C (dose: 0.62 mg/kg/injection, schedule: Q01DX009 (ip), vehicle: saline with Tween-80) was 112 % of control and the T/C (dose: 1.25 mg/kg/injection, schedule: Q01DX005 (iv), vehicle: other) was 93 % of control. The T/C (dose: 1.25 mg/kg/injection, schedule: Q01DX009 (ip), vehicle: other) was 117 % of control, the T/C (dose: 2.5 mg/kg/injection, schedule: Q01DX005 (iv), vehicle: other) was 102 % of control and the T/C (dose: 2.5 mg/kg/injection, schedule: Q01DX009 (ip), vehicle: other) was 119 % of control. The T/C (dose: 5.0 mg/kg/injection, schedule: Q01DX005 (iv), vehicle: other) was 95 % of control, the T/C (dose: 5.0 mg/kg/injection, schedule: Q01DX009 (ip), vehicle: saline with Tween-80) was 171 % of control and the T/C (dose: 10.0 mg/kg/injection, schedule: Q01DX005 (iv), vehicle: other) was 109 % of control. The T/C (dose: 10.0 mg/kg/injection, schedule: Q01DX009 (ip), vehicle: other) was 114 % of control.
In the case of `[Cl][Pt+2][Cl].[NH-]c1ccc(C(=O)c2ccccc2)cc1[NH-]`, the T/C (dose: 20.0 mg/kg/injection, schedule: Q01DX009 (ip), vehicle: saline with Tween-80) is reported as 109 % of control and 107 % of control, the T/C (dose: 40.0 mg/kg/injection, schedule: Q01DX009 (ip), vehicle: saline with Tween-80) is reported as 114 % of control and 116 % of control and the T/C (dose: 80.0 mg/kg/injection, schedule: Q01DX009 (ip), vehicle: saline with Tween-80) is reported as 112 % of control and 115 % of control. For the same molecule, the T/C (dose: 160.0 mg/kg/injection, schedule: Q01DX009 (ip), vehicle: saline with Tween-80) was 116 % of control and the T/C (dose: 320.0 mg/kg/injection, schedule: Q01DX009 (ip), vehicle: saline with Tween-80) was 110 % of control and 121 % of control.
For `Nc1nc(-c2cccc(S(=O)(=O)O)c2)c([N+](=O)[O-])c(=O)[nH]1`, the T/C (dose: 12.88 mg/kg/injection, schedule: Q01DX009 (ip), vehicle: saline) was 99 % of control, the T/C (dose: 25.75 mg/kg/injection, schedule: Q01DX009 (ip), vehicle: saline) was 96 % of control and the T/C (dose: 51.5 mg/kg/injection, schedule: Q01DX009 (ip), vehicle: saline) was 109 % of control.
With `C=C(C)[C@]12CC(C)C34OC(/C=C\C=C\CCCCCCCCC)(O[C@@H]1[C@@H]3[C@@H]1O[C@]1(CO)[C@@H](O)[C@]1(O)C(=O)C(C)=C[C@@H]41)O2` (some centres undefined) the T/C (dose: 0.09 mg/kg/injection, schedule: Q01DX009 (ip), vehicle: distilled water + alcohol) was 110 % of control, the T/C (dose: 0.18 mg/kg/injection, schedule: Q01DX009 (ip), vehicle: distilled water + alcohol) was 110 % of control and the T/C (dose: 0.37 mg/kg/injection, schedule: Q01DX009 (ip), vehicle: distilled water + alcohol) was 104 % of control.
`O=c1[nH]cnc2[nH]ncc12` was tested, and the T/C (dose: 12.5 mg/kg/injection, schedule: Q01DX009 (ip), vehicle: suspension in saline) was 103 % of control, the T/C (dose: 25.0 mg/kg/injection, schedule: Q01DX009 (ip), vehicle: suspension in saline) was 112 % of control and the T/C (dose: 50.0 mg/kg/injection, schedule: Q01DX009 (ip), vehicle: suspension in saline) was 97 % of control. The T/C (dose: 100.0 mg/kg/injection, schedule: Q01DX009 (ip), vehicle: suspension in saline) was 88 % of control.
`O=c1ncccn1[C@@H]1O[C@H](CO)[C@H](O)C1O` (some centres undefined) was tested, and the T/C (dose: 25.0 mg/kg/injection, schedule: Q01DX009 (ip), vehicle: saline) was 122 % of control, the T/C (dose: 50.0 mg/kg/injection, schedule: Q01DX009 (ip), vehicle: saline) was 116 % of control and 107 % of control and the T/C (dose: 100.0 mg/kg/injection, schedule: Q01DX009 (ip), vehicle: saline) was 122 % of control. The T/C (dose: 200.0 mg/kg/injection, schedule: Q01DX009 (ip), vehicle: saline) was 120 % of control and 122 % of control and the T/C (dose: 400.0 mg/kg/injection, schedule: Q01DX009 (ip), vehicle: saline) was 180 % of control.
`CC(C)(C)N1CC1CNC(=O)C(=O)NCC1CN1C(C)(C)C` (centres undefined) was tested, and the T/C (dose: 0.78 mg/kg/injection, schedule: Q01DX009 (ip), vehicle: saline with Tween-80) was 99 % of control, the T/C (dose: 1.56 mg/kg/injection, schedule: Q01DX009 (ip), vehicle: saline with Tween-80) was 101 % of control and the T/C (dose: 3.12 mg/kg/injection, schedule: Q01DX009 (ip), vehicle: saline with Tween-80) was 109 % of control. The T/C [1] was 150 % of control.
With `CC(C)OC(=O)c1ccc(C(C)C)cc1` the T/C (dose: 3.13 mg/kg/injection, schedule: Q01DX009 (ip), vehicle: saline with Tween-80) was 94 % of control, the T/C [2] was 96 % of control and the T/C [1] was 96 % of control and 101 % of control. For the same molecule, the T/C [3] was 90 % of control.
For `CCC(C)c1cnc(CC(C)C)c(=O)n1O` (centres undefined), the T/C [3] was 98 % of control and the T/C [4] was 87 % of control.
For `COC1=C(OC)C(=O)C(SC/C=C(\C)CCCC(C)CCCC(C)CCCC(C)C)=CC1=O` (centres undefined), the T/C [2] was 100 % of control, the T/C [1] was 109 % of control and 94 % of control and the T/C (dose: 25.0 mg/kg/injection, schedule: Q01DX009 (ip), vehicle: saline with Tween-80) was 101 % of control and 103 % of control. For the same molecule, the T/C [3] was 121 % of control and 106 % of control, the T/C [4] was 117 % of control and the T/C (dose: 200.0 mg/kg/injection, schedule: Q01DX009 (ip), vehicle: saline with Tween-80) was 116 % of control.
